Values quoted from earlier work, collected in patent US11352671B2, “Predicting therapeutic response in Parkinson's disease” (Vanderbilt University, priority 2015, dated 2022).

Conditions: in vivo

share that crosses the blood-brain barrier: 5-10%
Structure (SMILES): N[C@@H](Cc1ccc(O)c(O)c1)C(=O)O [levodopa]
